# Reference: ChEMBL document CHEMBL5052818, “Aminopyrimidine derivatives as ctps1 inhibitors” (2019)
# Test: Inhibition of C-terminal FLAG-His-tagged full length human CTPS1 measured after 60 mins by ADP-Glo assay
row,SMILES,IC50
1,CCC(C(=O)Nc1ccc(-c2cncc(C(F)(F)F)c2)cc1)c1ccnc(NS(=O)(=O)C2CC2)n1 (configuration not stated),> 100 nM
2,CCC(C(=O)Nc1ccc(-c2cncc(C(F)(F)F)c2)cn1)c1ccnc(NS(=O)(=O)C2CC2)n1 (configuration not stated),> 100 nM
3,CCC(C(=O)Nc1ccc(-c2cncc(OC(C)C)n2)cc1)c1ccnc(NS(=O)(=O)C2CC2)n1 (configuration not stated),≤ 100 nM
4,CCC(C(=O)Nc1ccc(-c2cncc(Cl)c2)cc1F)c1ccnc(NS(=O)(=O)C2CC2)n1 (configuration not stated),> 100 nM
5,CCC(C(=O)Nc1ccc(-c2cccnc2)cc1F)c1ccnc(NS(=O)(=O)C2CC2)n1 (configuration not stated),> 1000 nM
6,CC(C)Oc1cncc(-c2ccc(NC(=O)C(C)(C)c3ccnc(NS(C)(=O)=O)n3)c(F)c2)c1,> 1000 nM
7,CC(C)Oc1cncc(-c2ccc(NC(=O)C(C)(C)c3ccnc(NS(C)(=O)=O)n3)c(F)c2)n1,> 100 nM
8,CCC(C(=O)Nc1ccc(-c2cncc(Cl)c2)cc1)c1ccnc(NS(=O)(=O)C2CC2)n1 (configuration not stated),> 100 nM
9,O=C(Cc1ccnc(NS(=O)(=O)C2CC2)n1)Nc1ccc(-c2cncc(C(F)(F)F)n2)cc1F,≤ 100 nM
10,O=C(Cc1ccnc(NS(=O)(=O)C2CC2)n1)Nc1ccc(-c2cncc(OCC(F)(F)F)c2)cc1,> 100 nM
11,O=C(Cc1ccnc(NS(=O)(=O)C2CC2)n1)Nc1ccc(-c2cncc(OCC(F)(F)F)n2)cc1,≤ 100 nM
12,CCOc1cncc(-c2cnc(NC(=O)C(C)(C)c3ccnc(NS(=O)(=O)C4CC4)n3)c(F)c2)n1,≤ 100 nM
13,CCOc1cncc(-c2cnc(NC(=O)C(C)(C)c3ccnc(NS(C)(=O)=O)n3)c(F)c2)n1,> 100 nM
14,O=C(Cc1ccnc(NS(=O)(=O)C2CC2)n1)Nc1ccc(-c2cncc(C(F)(F)F)c2)cc1,> 100 nM
15,Cc1cncc(-c2ccc(NC(=O)C(C)(C)c3ccnc(NS(C)(=O)=O)n3)c(C)c2)n1,> 1000 nM
16,CCOc1cncc(-c2ccc(NC(=O)C3(c4ccnc(NS(=O)(=O)C5CC5)n4)CC3)cc2)n1,≤ 100 nM
17,CCOc1cncc(-c2ccc(NC(=O)C3(c4ccnc(NS(=O)(=O)C5CC5)n4)CCCC3)cc2)n1,≤ 100 nM
18,CCC(C(=O)Nc1ccc(-c2cncc(OC)n2)cc1F)c1ccnc(NS(=O)(=O)C2CC2)n1 (configuration not stated),≤ 100 nM
19,CCC(C(=O)Nc1ccc(-c2cncc(OCC(F)(F)F)n2)cc1F)c1ccnc(NS(=O)(=O)C2CC2)n1 (configuration not stated),≤ 100 nM
20,CCC(C(=O)Nc1ccc(-c2cncc(OCC(F)(F)F)n2)cc1)c1ccnc(NS(=O)(=O)C2CC2)n1 (configuration not stated),≤ 100 nM

row,SMILES,IC50
1,CCC(C(=O)Nc1ccc(-c2cncc(C#N)c2)cc1)c1ccnc(NS(=O)(=O)C2CC2)n1 (configuration not stated),> 100 nM
2,CCOc1cncc(-c2ccc(NC(=O)C(CC)c3ccnc(NS(=O)(=O)C4CC4)n3)nc2)n1 (configuration not stated),≤ 100 nM
3,CCOc1cncc(-c2ccc(NC(=O)C(C)(C)c3ccnc(NS(=O)(=O)CC)n3)c(F)c2)n1,> 100 nM
4,CCC(C(=O)Nc1ccc(-c2cncc(OC(C)C)c2)cc1F)c1ccnc(NS(=O)(=O)C2CC2)n1 (configuration not stated),> 100 nM
5,CCC(C(=O)Nc1ccc(-c2cncc(OC(C)C)n2)cn1)c1ccnc(NS(=O)(=O)C2CC2)n1 (configuration not stated),≤ 100 nM
6,CCC(C(=O)Nc1ccc(-c2cncc(C(F)(F)F)n2)cc1F)c1ccnc(NS(=O)(=O)C2CC2)n1 (configuration not stated),≤ 100 nM
7,CCOc1cncc(-c2cc(OC)c(NC(=O)C(C)(C)c3ccnc(NS(=O)(=O)C4CC4)n3)cc2F)n1,> 100 nM
8,CCC(C(=O)Nc1ccc(-c2cncc(OC(C)C)c2)cc1)c1ccnc(NS(=O)(=O)C2CC2)n1 (configuration not stated),> 100 nM
9,CC(C)Oc1cncc(-c2ccc(NC(=O)Cc3ccnc(NS(=O)(=O)C4CC4)n3)c(F)c2)n1,≤ 100 nM
10,CCC(C(=O)Nc1ccc(-c2cncc(OCC(F)(F)F)c2)cc1)c1ccnc(NS(=O)(=O)C2CC2)n1 (configuration not stated),> 100 nM
11,CC(C)Oc1cncc(-c2ccc(NC(=O)C(C)(C)c3ccnc(NS(=O)(=O)C4CC4)n3)c(F)c2)c1,> 100 nM
12,CCC(C(=O)Nc1ccc(-c2cccnc2)cn1)c1ccnc(NS(=O)(=O)C2CC2)n1 (configuration not stated),> 1000 nM
13,CCOc1cncc(-c2ccc(NC(=O)C(CCOC)c3ccnc(NS(=O)(=O)C4CC4)n3)cc2)n1 (configuration not stated),≤ 100 nM
14,CCOc1cncc(-c2ccc(NC(=O)C(CC)c3ccnc(NS(=O)(=O)C4CC4)n3)c(F)c2)n1 (configuration not stated),≤ 100 nM
15,CCC(C(=O)Nc1ccc(-c2cncc(OCC(F)(F)F)c2)cn1)c1ccnc(NS(=O)(=O)C2CC2)n1 (configuration not stated),> 100 nM
16,CCOc1cncc(-c2cc(C)c(NC(=O)C(C)(C)c3ccnc(NS(=O)(=O)C4CC4)n3)cc2C)n1,> 100 nM
17,CC(C)Oc1cncc(-c2ccc(NC(=O)C(C)(C)c3ccnc(NS(=O)(=O)C4CCC4)n3)c(F)c2)n1,> 100 nM
18,CCC(C(=O)Nc1ccc(-c2cncc(C(F)(F)F)n2)cn1)c1ccnc(NS(=O)(=O)C2CC2)n1 (configuration not stated),≤ 100 nM
19,CCOc1cncc(-c2ccc(NC(=O)C(C)(C)c3ccnc(NS(=O)(=O)C4CC4)n3)c(C)c2C)n1,> 100 nM
20,CCOc1cncc(-c2cc(F)c(NC(=O)C(C)(C)c3ccnc(NS(=O)(=O)C4CC4)n3)cc2C)n1,> 100 nM

# Results, then the compound that gave them:
row,IC50,SMILES
1,≤ 100 nM,COc1cncc(-c2ccc(NC(=O)Cc3ccnc(NS(=O)(=O)C4CC4)n3)cc2)n1
2,> 100 nM,CC(C)(C(=O)Nc1ccc(-c2cncc(C(F)(F)F)n2)cc1)c1ccnc(NS(C)(=O)=O)n1
3,≤ 100 nM,CC(C)Oc1cncc(-c2ccc(NC(=O)C(C)(C)c3ccnc(NS(=O)(=O)C4CC4)n3)cc2)n1
4,≤ 100 nM,O=C(Cc1ccnc(NS(=O)(=O)C2CC2)n1)Nc1ccc(-c2cncc(C(F)(F)F)n2)cc1
5,> 100 nM,COc1cncc(-c2ccc(NC(=O)C(C)(C)c3ccnc(NS(=O)(=O)C4CCC4)n3)cc2)n1
6,≤ 100 nM,CCOc1cncc(-c2ccc(NC(=O)C(C)(C)c3ccnc(NS(=O)(=O)C4CC4)n3)c(F)c2)n1
7,≤ 100 nM,COc1cncc(-c2ccc(NC(=O)C(C)(C)c3ccnc(NS(=O)(=O)C4CC4)n3)cc2)n1
8,> 100 nM,CC(C)(C(=O)Nc1ccc(-c2cncc(OC3CC3)n2)cc1)c1ccnc(NS(=O)(=O)C2CC2)n1
9,> 1000 nM,CCOc1cncc(-c2ccc(NC(=O)C(C)(C)c3ccnc(NS(=O)(=O)C(C)(C)C)n3)cc2)n1
10,≤ 100 nM,CCOc1cncc(-c2ccc(NC(=O)C(C)(C)c3ccnc(NS(C)(=O)=O)n3)cc2)n1
11,> 1000 nM,CC(C)(C(=O)Nc1ccc(-c2cccc(Cl)c2)cc1)c1ccnc(NS(=O)(=O)C2CC2)n1
12,≤ 100 nM,CCOc1cncc(-c2ccc(NC(=O)C(CC)c3ccnc(NS(=O)(=O)C4CC4)n3)cc2)n1 (configuration not stated)
13,> 100 nM,CCOc1cncc(-c2ccc(NC(=O)C(C)(C)c3ccnc(NS(=O)(=O)C4CCC4)n3)nc2)n1
14,≤ 100 nM,CCOc1cncc(-c2ccc(NC(=O)C(C)(C)c3ccnc(NS(=O)(=O)C4CC4)n3)c(Cl)c2)n1
15,> 100 nM,CCOc1cncc(-c2ccc(NC(=O)C(C)(C)c3nc(NS(=O)(=O)C4CC4)ncc3F)cc2)n1
16,> 1000 nM,CC(C)(C(=O)Nc1ccc(-c2cccnc2)cc1F)c1ccnc(NS(=O)(=O)C2CC2)n1
17,≤ 100 nM,CCOc1cncc(-c2ccc(NC(=O)C(C)(C)c3ccnc(NS(=O)(=O)C4CC4)n3)nc2)n1
18,> 100 nM,COc1cncc(-c2ccc(NC(=O)C(C)(C)c3ccnc(NS(=O)(=O)C4CC4)n3)cc2)c1
19,> 100 nM,CCC(C(=O)Nc1ccc(-c2cccnc2)cc1)c1ccnc(NS(=O)(=O)C2CC2)n1 (configuration not stated)
20,> 100 nM,CCC(C(=O)Nc1ccc(-c2cncc(C(F)(F)F)n2)cc1)c1ccnc(NS(=O)(=O)C2CC2)n1 (configuration not stated)
21,> 100 nM,CCOc1cncc(-c2ccc(NC(=O)C(C)(C)c3ccnc(NS(=O)(=O)C4(C)CC4)n3)cc2)n1
22,> 1000 nM,CC(C)(C(=O)Nc1ccc(-c2cccc(C#N)c2)cc1)c1ccnc(NS(=O)(=O)C2CC2)n1
23,> 100 nM,CCC(C(=O)Nc1ccc(-c2cnccn2)cc1)c1ccnc(NS(=O)(=O)C2CC2)n1 (configuration not stated)
24,> 10000 nM,CCOc1cccc(-c2ccc(NC(=O)C(C)(C)c3ccnc(NS(=O)(=O)C4CC4)n3)cc2)c1

row,IC50,SMILES
1,> 100 nM,CCOc1cncc(-c2ccc(NC(=O)C(C)(C)c3ccnc(NS(=O)(=O)C4CC4)n3)nc2)c1
2,> 100 nM,CC(C(=O)Nc1ccc(-c2cccnc2)cc1)c1ccnc(NS(=O)(=O)C2CC2)n1 (configuration not stated)
3,> 1000 nM,CC(C)(C(=O)Nc1ccc(-c2cccnc2)cc1)c1ccnc(NS(=O)(=O)C2CC2)n1
4,> 100 nM,CC(C)(C(=O)Nc1ccc(-c2cncc(F)c2)cc1)c1ccnc(NS(=O)(=O)C2CC2)n1
5,> 100 nM,Cc1cncc(-c2ccc(NC(=O)C(C)(C)c3ccnc(NS(=O)(=O)C4CC4)n3)cc2)c1
6,≤ 100 nM,CCOc1cncc(-c2ccc(NC(=O)C(C)(C)c3ccnc(NS(=O)(=O)C4CC4)n3)c(OC(F)(F)F)c2)n1
7,≤ 100 nM,CCOc1cncc(-c2ccc(NC(=O)Cc3ccnc(NS(=O)(=O)C4CC4)n3)cc2)n1
8,> 100 nM,CCOc1cncc(-c2ccc(NC(=O)C(C)(C)c3ccnc(NS(=O)(=O)CC)n3)cc2)n1
9,> 100 nM,CC(C)(C(=O)Nc1ccc(-c2cncc(C(F)(F)F)c2)cc1)c1ccnc(NS(=O)(=O)C2CC2)n1
10,> 100 nM,CC(C)(C(=O)Nc1ccc(-c2cncc(Cl)c2)cc1)c1ccnc(NS(=O)(=O)C2CC2)n1
11,> 100 nM,CCC(C(=O)Nc1ccc(-c2cnccn2)cc1F)c1ccnc(NS(=O)(=O)C2CC2)n1 (configuration not stated)
12,≤ 100 nM,CCOc1cncc(-c2ccc(NC(=O)C(C)(C)c3ccnc(NS(=O)(=O)C4CC4)n3)c(C#N)c2)n1
13,≤ 100 nM,CCOc1cncc(-c2ccc(NC(=O)C(C)(C)c3ccnc(NS(=O)(=O)C4CC4)n3)cc2)n1
14,≤ 100 nM,CC(C)Oc1cncc(-c2ccc(NC(=O)C(C)(C)c3ccnc(NS(=O)(=O)C4CC4)n3)nc2)n1
15,≤ 100 nM,CCC(C(=O)Nc1ccc(-c2cncc(OC)n2)cc1)c1ccnc(NS(=O)(=O)C2CC2)n1 (configuration not stated)
16,≤ 100 nM,CC(C)(C(=O)Nc1ccc(-c2cncc(OC3CC3)n2)cn1)c1ccnc(NS(=O)(=O)C2CC2)n1
17,> 100 nM,Cc1cc(-c2cncc(C(F)(F)F)n2)ccc1NC(=O)C(C)(C)c1ccnc(NS(=O)(=O)C2CC2)n1
18,> 1000 nM,CCOc1cncc(-c2ccc(NC(=O)C(C)(C)c3nc(NS(=O)(=O)C4CC4)ncc3C)cc2)n1
19,≤ 100 nM,CC(C)Oc1cncc(-c2ccc(NC(=O)C(C)(C)c3ccnc(NS(=O)(=O)C4CC4)n3)c(F)c2)n1
20,> 1000 nM,CC(C)(C(=O)Nc1ccc(-c2cnccn2)cc1)c1ccnc(NS(=O)(=O)C2CC2)n1
21,> 100 nM,CCC(C(=O)Nc1ccc(-c2cncc(Cl)n2)cc1)c1ccnc(NS(=O)(=O)C2CC2)n1 (configuration not stated)
22,> 100 nM,CC(C)(C(=O)Nc1ccc(-c2cncc(C#N)c2)cc1)c1ccnc(NS(=O)(=O)C2CC2)n1
23,> 100 nM,CC(C)Oc1cncc(-c2ccc(NC(=O)C(C)(C)c3ccnc(NS(=O)(=O)C4CC4)n3)cc2)c1
